# Species on record: Rattus norvegicus
# Experiment: Open TG-GATES - Regimen: Single
# Format: toxicity, organism-based, Sprague-Dawley
# Set-up: regimen Single, gender Male, age 6 weeks
# Details: in vivo, po, 3 mg/kg, route gavage, dose level Low; for APTT / Bas / Eos / Fbg / Hb / Ht / Lym / MCH / MCHC / MCV / Mono / Neu / PT / Plat / RBC / Ret / WBC: tissue Blood; for KIDNEY_L / KIDNEY_R / KIDNEY_TOTAL: tissue Kidney; for LIVER: tissue Liver; for A/G / ALP / ALT / AST / BUN / CRE / Ca / Cl / DBIL / GLC / IP / K / LDH / Na / PL / RALB / TBIL / TC / TG / TP / gamma-GTP: tissue Plasma
smiles,measurement,setting,value
Nc1c2c(nc3ccccc13)CCCC2 [TACRINE],TERMINAL_BW,3 h,208.2 g
same,APTT,3 h,21.3 s
same,Bas,3 h,0%
same,Eos,3 h,0.4%
same,Fbg,3 h,283.8 mg/dL
same,Hb,3 h,13.4 g/dL
same,Ht,3 h,39%
same,Lym,3 h,77%
same,MCH,3 h,21.5 pg
same,MCHC,3 h,34.4%
same,MCV,3 h,62.5 fL
same,Mono,3 h,2.2%
same,Neu,3 h,19.4%
same,PT,3 h,16.1 s
same,Plat,3 h,120.6 x10_4/uL
same,RBC,3 h,623.8 x10_4/ul
same,Ret,3 h,8.2%
same,WBC,3 h,90.3 x10_2/uL
same,KIDNEY_L,3 h,0.9 g
same,KIDNEY_R,3 h,0.9 g
same,KIDNEY_TOTAL,3 h,1.9 g
same,LIVER,3 h,9.4 g
same,A/G,3 h,1.3
same,ALP,3 h,1562.6 IU/L
same,ALT,3 h,45.6 IU/L
same,AST,3 h,79.6 IU/L
same,BUN,3 h,13.4 mg/dL
same,CRE,3 h,0.2 mg/dL
same,Ca,3 h,10.7 mg/dL
same,Cl,3 h,107 meq/L
same,DBIL,3 h,0.002 mg/dL
same,GLC,3 h,184.2 mg/dL
same,IP,3 h,8 mg/dL
same,K,3 h,4 meq/L
same,LDH,3 h,251.6 IU/L
same,Na,3 h,142.6 meq/L
same,PL,3 h,139.2 mg/dL
same,RALB,3 h,3 g/dL
same,TBIL,3 h,0.024 mg/dL
same,TC,3 h,75 mg/dL
same,TG,3 h,64 mg/dL
same,TP,3 h,5.4 g/dL
same,gamma-GTP,3 h,1 IU/L
same,TERMINAL_BW,6 h,200.8 g
same,APTT,6 h,20.8 s
same,Bas,6 h,0%
same,Eos,6 h,0.8%
same,Fbg,6 h,312.8 mg/dL
same,Hb,6 h,13.6 g/dL
same,Ht,6 h,39.2%
same,Lym,6 h,78.8%
same,MCH,6 h,21.2 pg
same,MCHC,6 h,34.6%
same,MCV,6 h,61.2 fL
same,Mono,6 h,2.4%
same,Neu,6 h,17.2%
same,PT,6 h,15.6 s
same,Plat,6 h,125.6 x10_4/uL
same,RBC,6 h,641 x10_4/ul
same,Ret,6 h,7.7%
same,WBC,6 h,102.1 x10_2/uL
same,KIDNEY_L,6 h,0.9 g
same,KIDNEY_R,6 h,0.9 g
same,KIDNEY_TOTAL,6 h,1.8 g
same,LIVER,6 h,8.7 g
same,A/G,6 h,1.2
same,ALP,6 h,1243.4 IU/L
same,ALT,6 h,34.8 IU/L
same,AST,6 h,67.2 IU/L
same,BUN,6 h,11.4 mg/dL
same,CRE,6 h,0.2 mg/dL
same,Ca,6 h,10.6 mg/dL
same,Cl,6 h,106.8 meq/L
same,DBIL,6 h,0.002 mg/dL
same,GLC,6 h,175.6 mg/dL
same,IP,6 h,9 mg/dL
same,K,6 h,4.4 meq/L
same,LDH,6 h,200 IU/L
same,Na,6 h,142 meq/L
same,PL,6 h,148 mg/dL
same,RALB,6 h,3.1 g/dL
same,TBIL,6 h,0.024 mg/dL
same,TC,6 h,76 mg/dL
same,TG,6 h,89.6 mg/dL
same,TP,6 h,5.5 g/dL
same,gamma-GTP,6 h,1 IU/L
same,TERMINAL_BW,9 h,200.1 g
same,APTT,9 h,19.8 s
same,Bas,9 h,0%
same,Eos,9 h,1%
same,Fbg,9 h,303.6 mg/dL
same,Hb,9 h,13.4 g/dL
same,Ht,9 h,39%
same,Lym,9 h,78.2%
same,MCH,9 h,20.9 pg
same,MCHC,9 h,34.4%
same,MCV,9 h,60.7 fL
same,Mono,9 h,2.6%
same,Neu,9 h,17.8%
same,PT,9 h,16.3 s
same,Plat,9 h,115.2 x10_4/uL
same,RBC,9 h,643 x10_4/ul
same,Ret,9 h,7.8%
same,WBC,9 h,92.4 x10_2/uL
same,KIDNEY_L,9 h,0.9 g
same,KIDNEY_R,9 h,0.9 g
same,KIDNEY_TOTAL,9 h,1.8 g
same,LIVER,9 h,8.3 g
same,A/G,9 h,1.2
same,ALP,9 h,1371.2 IU/L
same,ALT,9 h,36 IU/L
same,AST,9 h,70.6 IU/L
same,BUN,9 h,12.4 mg/dL
same,CRE,9 h,0.1 mg/dL
same,Ca,9 h,10.6 mg/dL
same,Cl,9 h,107.8 meq/L
same,DBIL,9 h,0.002 mg/dL
same,GLC,9 h,181.6 mg/dL
same,IP,9 h,9.8 mg/dL
same,K,9 h,4.5 meq/L
same,LDH,9 h,253.4 IU/L
same,Na,9 h,141.6 meq/L
same,PL,9 h,134.4 mg/dL
same,RALB,9 h,2.9 g/dL
same,TBIL,9 h,0.012 mg/dL
same,TC,9 h,69.8 mg/dL
same,TG,9 h,97.8 mg/dL
same,TP,9 h,5.4 g/dL
same,gamma-GTP,9 h,1 IU/L
same,TERMINAL_BW,24 h,217.8 g
same,APTT,24 h,21.2 s
same,Bas,24 h,0%
same,Eos,24 h,1%
same,Fbg,24 h,292 mg/dL
same,Hb,24 h,13.6 g/dL
same,Ht,24 h,39.7%
same,Lym,24 h,80.8%
same,MCH,24 h,21.3 pg
same,MCHC,24 h,34.2%
same,MCV,24 h,62.4 fL
same,Mono,24 h,3%
same,Neu,24 h,14.4%
same,PT,24 h,16.2 s
same,Plat,24 h,113.1 x10_4/uL
same,RBC,24 h,636.6 x10_4/ul
same,Ret,24 h,7.5%
same,WBC,24 h,92.6 x10_2/uL
same,KIDNEY_L,24 h,1 g
same,KIDNEY_R,24 h,1 g
same,KIDNEY_TOTAL,24 h,1.9 g
same,LIVER,24 h,10 g
same,A/G,24 h,1.3
same,ALP,24 h,1864.4 IU/L
same,ALT,24 h,46.8 IU/L
same,AST,24 h,80 IU/L
same,BUN,24 h,15.6 mg/dL
same,CRE,24 h,0.1 mg/dL
same,Ca,24 h,10.8 mg/dL
same,Cl,24 h,107.8 meq/L
same,DBIL,24 h,0.002 mg/dL
same,GLC,24 h,197.4 mg/dL
same,IP,24 h,7.2 mg/dL
same,K,24 h,4.1 meq/L
same,LDH,24 h,293.2 IU/L
same,Na,24 h,141.6 meq/L
same,PL,24 h,146.8 mg/dL
same,RALB,24 h,3.1 g/dL
same,TBIL,24 h,0.032 mg/dL
same,TC,24 h,74.4 mg/dL
same,TG,24 h,107 mg/dL
same,TP,24 h,5.5 g/dL
same,gamma-GTP,24 h,1 IU/L

# Source: ChEMBL document CHEMBL3885861, “Open TG-GATES”
